No end group written: not given here.
Key:
[1] = test system: JNK on mitochondria of HeLa cells; conditions: N-acetylcysteine; earlier data, ref "Recent data from our lab"; cited from earlier work
[2] = test system: JNK on mitochondria of HeLa cells; type: cell-based
[3] = test system: c-jun phosphorylation in HeLa cells; assay: c-jun phosphorylation in anisomycin-treated HeLa cells, Western blot; type: cell-based; conditions: 25µM anisomycin, 0-120 min
HeLa cells [4] = assay: Mitochondrial membrane potential, JC-1; type: cell-based
[5] = test system: JNK phosphorylation in HeLa cells; assay: JNK phosphorylation in anisomycin-treated HeLa cells, Western blot; type: cell-based; conditions: 25µM anisomycin
HeLa cells [6] = conditions: 25µM anisomycin, 4 hours
JNK = conditions: cited from earlier work
JNK3α1 [7] = target: T1, JNK3α1 (Homo sapiens, UniProt P53779)
[8] = target: JNK1α1 (active, recombinant) (human) (UniProt P45983)
JNK3α1 [9] = target: T1, JNK3α1; assay: Fluorescence polarization assay for peptide binding
JNK3α1 [10] = target: T1, JNK3α1; assay: Kinase-Glo phosphorylation assay, JNK3α1; type: biochemical; conditions: 4-parameter nonlinear regression, 30°C, 60 min
[11] = test system: recombinant JNK1α1 / mitochondria of JNK-null fibroblasts; set-up: species or system murine; conditions: TI-JIP 1µM, Tat-SabKIM1 10µM
HeLa cells [12] = assay: Cytochrome c release, ELISA; type: cell-based; conditions: 25µM anisomycin 4 hours; Tat-SabKIM1 10µM, TI-JIP 1µM, siRNA 50nM

For `CC(=O)N[C@@H](CS)C(=O)O` [N-acetylcysteine], the “JNK translocation to the mitochondria” value [1] is listed as “inhibits JNK translocation to the mitochondria”.

For `COc1ccc(C[C@H]2NC[C@H](O)[C@H]2OC(C)=O)cc1` [anisomycin], the “phospho-JNK on the mitochondria” value ([2]; 25µM anisomycin) was “as early as 5 minutes and peaked at 30 minutes”, the “Sab abundance on the mitochondria” value ([2]; 25µM anisomycin stress) was “did not have altered abundance” and the “JNK species found on the mitochondria” value ([2]; 25µM anisomycin, Western blot) was “only the 54kDa species was found on the mitochondria”. For the same molecule, the “c-jun levels” value [3] was “remained constant”, the “c-jun phosphorylation on serine 73” value [3] was “increased at 15–30 minutes, peaking at 45–60 min, then decreasing following 60 minutes” and the “increase in percent depolarized mitochondria” value (HeLa cells [4]; 25µM anisomycin, 45 min, vs DMSO-treated cells) was 40–50%. For the same molecule, the “JNK phosphorylation” value ([5]; 0-120 min) was “increased JNK phosphorylation between 15 and 30 minutes, and then JNK phosphorylation decreased after 30 minutes”, the “total JNK abundance” value ([5]; two hour time course) was “unchanged” and the cell death (HeLa cells [6]) was 50%. For the same molecule, the decrease in viability (HeLa cells [6]; vs DMSO-treated cells) was ~ 50%.

In the case of AVVRPGSLDLR [Sab KIM1 motif], the “inhibition of JNK phosphorylation of c-jun / transcription factors” value (JNK; ref [15]) is given as “little, if any impact”.

For “Sab KIM1 peptide: Sab KIM1 motif examined earlier as an inhibitor of JNK mediated c-jun phosphorylation (GFESLSVPSPLDLSGPRVVAPPRRRQRRKKRG; not fully specified; retro-inverso configuration; C-terminal amide (-NH2))”, the “impact on c-jun phosphorylation” value (JNK; ref [18]) is listed as “did not impact c-jun phosphorylation”.

With Tat-TI-JIP (peptide) the IC50 of inhibition of JNK3α1 phosphorylation of ATF2 (Kinase-Glo assay) (JNK3α1 [7]) was 27 nM, the IC50 of inhibition of JNK3α1 phosphorylation of Sab protein (Kinase-Glo assay) (JNK3α1 [7]) was 18 nM and the IC50 of inhibition of JNK3α1 phosphorylation of c-jun (Kinase-Glo assay) (JNK3α1 [7]) was 38 nM. It also gave an IC50 of inhibition of JNK1α1 phosphorylation of c-jun (1–79) (Kinase-Glo assay) [8] of 34 nM.

For YGRKKRRQRRRRPKRPTTLNLF-NH2 [Tat-TI-JIP], the Kd (JNK3α1 [9]) was 450 ± 60 nM, the “affinity of JNK3α1 compared to the Sab peptide” value (JNK3α1 [9]; greater affinity for JIP peptide vs Sab peptide, fluorescence polarization) was 25 -fold and the IC50 (JNK3α1 [10]; IC50 -vs-Sab, JNK3α1, substrate Sab) was 18 ± 9 nM. The IC50 (JNK3α1 [10]; IC50 -vs-c-jun, JNK3α1, substrate c-jun) was 38 ± 12 nM, the “levels of Sab on isolated mitochondria” value [11] was “did not alter the levels of Sab” and the “Sab expression on mitochondria of HeLa cells with peptide” value ([2]; 25µM anisomycin 30 min, TI-JIP 1µM, Tat-SabKIM1 10µM) was “without impacting Sab expression”. The “mitochondrial membrane potential (MMP) dissipation” value (HeLa cells [4]; JC-1, 25µM anisomycin 45 min, Tat-SabKIM1 10µM, TI-JIP 1µM, siRNA 50nM) was “decreased the amount of mitochondria with dissipating MMP”, the “cytochrome c release from the mitochondria” value (HeLa cells [12]) was “capable of reducing cytochrome c release” and the Ki (JNK; read-out: Ki, inhibition of JNK activity versus ATF-2, ref [19], [20]) was 25 nM. The “inhibition of JNK catalytic activity with respect to substrate binding” value (JNK; ref [19]–[21]) was “potent inhibitor”.

From article PMC3158843 (ACS chemical biology, 2011)
